Each structure is given as a SMILES string.

The values that follow come from patent US20220000117A1, “METHOD FOR CONTROLLING DISEASES IN SMALL GRAIN CEREALS, SEED OF SMALL GRAIN CEREALS, AND METHOD FOR SUPPRESSING LODGING DAMAGE IN SMALL GRAIN CEREALS” (KUMIAI CHEMICAL INDUSTRY CO., LTD., priority 2019, published 2022).

In one experiment the test system is powdery mildew. In words: Test Example 9: control test of wheat powdery mildew, cup in greenhouse, inoculated, Norin No. 61 (Tables 10 to 14). In kind it is in vivo, Blumeria graminis. Further details: key to Degree of Disease Occurrence: Σ(index×leaves)/(4×leaves investigated)×100; 0 = no disease, 100 = max. As for the experimental part:
(§1) Degree of Disease Occurrence=Σ(Index×Number of Leaves of Index)/(4×Number of Investigated Leaves)×100 (1)
Seed of wheat (variety: Norin No. 61) was used, and 100 ml of suspension waters each containing the compound shown in Table 10 at an amount shown in […] (synthesis was performed in accordance with a known method, a solution dissolved in DMSO or formulated 10% wettable powder was used) were prepared. The seed having a mass of 1 kg of wheat was mixed into the suspension water with a chemical treated amount shown in Table 10, and air-dried, and then, 5 seeds were sown in a plastic cup having a diameter of 6 cm containing river sand and managed in a greenhouse. In Comparative Examples, 20 ml of the suspension water of an active ingredient, which had been adjusted to have a concentration shown in Table 10, was sprayed in a frame of 45 cm×45 cm in which a pot of wheat seedlings was placed (corresponding to 1000 L/ha) 14 days after seeding. On day 14 after seeding, conidiospores of powdery mildew were sifted over leaves of wheat seedlings and inoculated onto the leaves (after the sprayed liquid was dried in the case of Comparative Examples), a lesion area ratio of powdery mildew in a first leaf was investigated 21 days after seeding according to the criteria in Table 1, and the degree of disease occurrence was calculated by the above calculation formula (1).

Another experiment has as its system septoria leaf blotch. In words: Test Example 10: control test of septoria leaf blotch of wheat, cup in greenhouse, inoculated, variety ARKEOS (Tables 15 to 19). In kind it is in vivo, Septoria tritici. As for the experimental part: as §1
Seed of wheat (variety: ARKEOS) was used, and 100 ml of suspension waters each containing the compound shown in Table 15 at an amount shown in Table 15 (synthesis was performed in accordance with a known method, a liquid dissolved in a small amount of DMSO or formulated 10% wettable powder was used) were prepared. Seed having a mass of 1 kg was mixed into the suspension water with a rate shown in Examples of Table 15, and air-dried, and then, 5 seeds were sown in a plastic cup having a diameter of 6 cm containing mixed soil of river sand and horticultural soil and managed in a greenhouse. In Comparative Examples, 20 ml of suspension water of an active ingredient, which had been adjusted to have a concentration shown in Table 15 to 19, was sprayed in a frame of 45 cm×45 cm in which a pot of wheat seedlings was placed (corresponding to 1000 L/ha) 14 days after seeding. On day 14 after seeding, a spore suspension in which conidiospores of septoria leaf blotch are suspended was sprayed and inoculated on leaves of wheat seedlings (after the sprayed liquid was dried in the case of Comparative Examples), a lesion area ratio of septoria leaf blotch in a second leaf was investigated approximately 35 days after seeding according to the criteria in Table 1, and the degree of disease occurrence was calculated by the above calculation formula (1).

Where [1] appears, read: Table 10 run, Foliage Treatment, spray 10 ppm (10 g/ha) day 14, first leaf, 21 days after seeding.
The mark [2] stands for this setting: Table 10 run, Foliage Treatment, spray 50 ppm (50 g/ha) day 14, first leaf, 21 days after seeding.
[3] abbreviates: Table 10 run, Foliage Treatment, spray 100 ppm (100 g/ha) day 14, first leaf, 21 days after seeding.
The mark [4] stands for this setting: Table 10 run, Seed Treatment 0.1 g/Seed 1 kg (10 g/ha), first leaf, 21 days after seeding.
[5] abbreviates: Table 10 run, Seed Treatment 0.5 g/Seed 1 kg (50 g/ha), first leaf, 21 days after seeding.
Setting [6] is: Table 10 run, Seed Treatment 1 g/Seed 1 kg (100 g/ha), first leaf, 21 days after seeding.
Where [7] appears, read: Table 11 run (different day), Foliage Treatment, spray 10 ppm (10 g/ha).
Where [8] appears, read: Table 11 run (different day), Foliage Treatment, spray 50 ppm (50 g/ha).
Setting [9] is: Table 11 run (different day), Seed Treatment 0.1 g/Seed 1 kg (10 g/ha).
Where [10] appears, read: Table 11 run (different day), Seed Treatment 0.5 g/Seed 1 kg (50 g/ha).
[11] abbreviates: Table 13 run (different day), Foliage Treatment, spray 10 ppm (10 g/ha).
[12] abbreviates: Table 13 run (different day), Foliage Treatment, spray 50 ppm (50 g/ha).
Where [13] appears, read: Table 13 run (different day), Seed Treatment 0.1 g/Seed 1 kg (10 g/ha).
[14] abbreviates: Table 13 run (different day), Seed Treatment 0.5 g/Seed 1 kg (50 g/ha).
[15] abbreviates: Table 13 run (different day), Foliage Treatment, spray 5 ppm (5 g/ha).
Where [16] appears, read: Table 13 run (different day), Seed Treatment 0.05 g/Seed 1 kg (5 g/ha).
The mark [17] stands for this setting: Table 17, Foliage Treatment, spray 100 ppm suspension water (corresponding to 100 g/ha) 14 days after seeding, untreated 50.0.
Where [18] appears, read: Table 17, Foliage Treatment, spray 100 ppm suspension water (corresponding to 100 g/ha) 14 days after seeding, untreated 100.0.
[19] abbreviates: Table 17, Seed Treatment, 1 g/Seed 1 kg (corresponding to 100 g/ha), untreated 50.0.
The mark [20] stands for this setting: Table 17, Seed Treatment, 1 g/Seed 1 kg (corresponding to 100 g/ha), untreated 100.0.
The mark [21] stands for this setting: Table 10 run, Foliage Treatment, spray 5 ppm (5 g/ha) day 14, first leaf, 21 days after seeding.
Setting [22] is: Table 10 run, Seed Treatment 0.05 g/Seed 1 kg (5 g/ha), first leaf, 21 days after seeding.

Turning to `N#Cc1snc(Cl)c1Cl` [Compound (2)], the “Degree of Disease Occurrence” value in the experiment with powdery mildew (setting [1]) is 59.4; with powdery mildew (setting [2]) it was 56.3; with powdery mildew (setting [3]), 47.9; with powdery mildew (setting [4]), 45.9; with powdery mildew (setting [5]) it was 41.0; in the experiment on powdery mildew (setting [6]) it was 28.9. The “Degree of Disease Occurrence” value in the experiment on septoria leaf blotch (Table 16, Foliage Treatment, spray 100 ppm suspension water (corresponding to 100 g/ha) 14 days after seeding, untreated 57.1) is 51.0; in the experiment with septoria leaf blotch (Table 16, Seed Treatment, 1 g/Seed 1 kg (corresponding to 100 g/ha), untreated 57.1), 37.5. The “Disease Leaf Rate (%)” value in the experiment with powdery mildew (setting [1]) is on record as 100.0%; with powdery mildew (setting [2]), 100.0%; with powdery mildew (setting [3]), 95.8%; with powdery mildew (setting [4]), 100.0%; in the experiment on powdery mildew (setting [5]), 93.8%; in the experiment on powdery mildew (setting [6]), 87.5%. Also, the “Disease Leaf Rate (%)” value was found to be 100.0% in the experiment on septoria leaf blotch (Table 16, Foliage Treatment, spray 100 ppm suspension water (corresponding to 100 g/ha) 14 days after seeding, untreated 93.3) and 81.3% with septoria leaf blotch (Table 16, Seed Treatment, 1 g/Seed 1 kg (corresponding to 100 g/ha), untreated 93.3).
Turning to `CC(=O)OCc1snc(Cl)c1Cl` [Compound (4)], the “Degree of Disease Occurrence” value turned out to be 100.0 in the experiment on powdery mildew (setting [7]); 90.6 with powdery mildew (setting [8]); 74.1 with powdery mildew (setting [9]); 57.2 in the experiment on powdery mildew (setting [10]); 81.7 in the experiment with powdery mildew (setting [11]); 71.5 in the experiment with powdery mildew (setting [12]). Further, the “Degree of Disease Occurrence” value in the experiment on powdery mildew (setting [13]) came out at 47.9; with powdery mildew (setting [14]), 49.1. The “Disease Leaf Rate (%)” value is recorded as 100% in the experiment on powdery mildew (setting [7]); 100% in the experiment with powdery mildew (setting [8]); 100% in the experiment on powdery mildew (setting [9]); 100% in the experiment with powdery mildew (setting [10]); 100.0% with powdery mildew (setting [11]); 100.0% in the experiment on powdery mildew (setting [12]). Further, the “Disease Leaf Rate (%)” value in the experiment with powdery mildew (setting [13]) and with powdery mildew (setting [14]) was 100.0% each time.
For the compound `O=C(OCc1snc(Cl)c1Cl)c1ccccc1` [Compound (5)], the “Degree of Disease Occurrence” value in the experiment with powdery mildew (setting [8]) was 90.5; in the experiment on powdery mildew (setting [10]) it was 57.0; with powdery mildew (setting [15]), 100.0; in the experiment with powdery mildew (setting [11]) it was 62.4; in the experiment with powdery mildew (setting [12]) it was 86.7; in the experiment on powdery mildew (setting [16]), 66.1. The “Degree of Disease Occurrence” value amounted to 58.1 in the experiment with powdery mildew (setting [13]) and 40.6 in the experiment on powdery mildew (setting [14]). In addition, the “Disease Leaf Rate (%)” value in the experiment on powdery mildew (setting [8]) worked out at 100%; with powdery mildew (setting [10]), 95%; with powdery mildew (setting [15]) it was 100.0%; in the experiment with powdery mildew (setting [11]), 100.0%; in the experiment with powdery mildew (setting [12]), 100.0%; in the experiment with powdery mildew (setting [16]), 100.0%. The entries for the “Disease Leaf Rate (%)” value in the experiment with powdery mildew (setting [13]) and with powdery mildew (setting [14]) were 100.0% and 95.0%, respectively.
As to `COC(=O)c1snc(Cl)c1Cl` [Compound (7)], the “Degree of Disease Occurrence” value was 94.8 in the experiment on powdery mildew (setting [8]); 78.8 with powdery mildew (setting [10]); 77.1 in the experiment on powdery mildew (setting [12]); 61.3 with powdery mildew (setting [14]); 41.7 in the experiment with septoria leaf blotch (Table 17, Foliage Treatment, spray 10 ppm suspension water (corresponding to 10 g/ha) 14 days after seeding, untreated 50.0); 50.0 in the experiment with septoria leaf blotch (setting [17]). Besides, the “Degree of Disease Occurrence” value stood at 22.5 in the experiment on septoria leaf blotch (Table 17, Seed Treatment, 0.1 g/Seed 1 kg (corresponding to 10 g/ha), untreated 50.0) and 19.4 in the experiment with septoria leaf blotch (setting [19]). In addition, the “Disease Leaf Rate (%)” value is recorded as 100% in the experiment on powdery mildew (setting [8]); 100% in the experiment with powdery mildew (setting [10]); 100.0% in the experiment on powdery mildew (setting [12]); 100.0% in the experiment on powdery mildew (setting [14]); 100.0% with septoria leaf blotch (Table 17, Foliage Treatment, spray 10 ppm suspension water (corresponding to 10 g/ha) 14 days after seeding, untreated 100.0); 93.3% in the experiment with septoria leaf blotch (setting [18]). The “Disease Leaf Rate (%)” value in the experiment on septoria leaf blotch (Table 17, Seed Treatment, 0.1 g/Seed 1 kg (corresponding to 10 g/ha), untreated 100.0) turned out to be 68.8%; in the experiment with septoria leaf blotch (setting [20]) it was 77.5%.
Turning to `CCOC(=O)c1snc(Cl)c1Cl` [Compound (8)], the “Degree of Disease Occurrence” value was determined as 96.9 with powdery mildew (setting [7]); 94.8 in the experiment with powdery mildew (setting [8]); 80.2 in the experiment on powdery mildew (setting [9]); 75.1 in the experiment with powdery mildew (setting [10]); 72.8 in the experiment on powdery mildew (setting [11]); 49.7 in the experiment on powdery mildew (setting [13]). Besides, the “Degree of Disease Occurrence” value in the experiment with septoria leaf blotch (Table 17, Foliage Treatment, spray 5 ppm suspension water (corresponding to 5 g/ha) 14 days after seeding, untreated 50.0) is 38.3; with septoria leaf blotch (Table 17, Foliage Treatment, spray 50 ppm suspension water (corresponding to 50 g/ha) 14 days after seeding, untreated 50.0) it was 31.7; in the experiment with septoria leaf blotch (setting [17]) it was 26.7; with septoria leaf blotch (Table 17, Seed Treatment, 0.05 g/Seed 1 kg (corresponding to 5 g/ha), untreated 50.0), 23.8; with septoria leaf blotch (Table 17, Seed Treatment, 0.5 g/Seed 1 kg (corresponding to 50 g/ha), untreated 50.0) it was 10.3; in the experiment on septoria leaf blotch (setting [19]), 8.8. Besides, the “Disease Leaf Rate (%)” value with powdery mildew (setting [7]) came to 100%; in the experiment on powdery mildew (setting [8]), 100%; in the experiment on powdery mildew (setting [9]) it was 100%; in the experiment on powdery mildew (setting [10]), 96.4%; in the experiment on powdery mildew (setting [11]) it was 100.0%; in the experiment with powdery mildew (setting [13]), 95.8%. The “Disease Leaf Rate (%)” value was 100.0% with septoria leaf blotch (Table 17, Foliage Treatment, spray 5 ppm suspension water (corresponding to 5 g/ha) 14 days after seeding, untreated 100.0); 100.0% with septoria leaf blotch (Table 17, Foliage Treatment, spray 50 ppm suspension water (corresponding to 50 g/ha) 14 days after seeding, untreated 100.0); 93.3% in the experiment with septoria leaf blotch (setting [18]); 90.0% in the experiment with septoria leaf blotch (Table 17, Seed Treatment, 0.05 g/Seed 1 kg (corresponding to 5 g/ha), untreated 100.0); 36.3% with septoria leaf blotch (Table 17, Seed Treatment, 0.5 g/Seed 1 kg (corresponding to 50 g/ha), untreated 100.0); 35.0% in the experiment with septoria leaf blotch (setting [20]).
Consider `NC(=O)c1snc(Cl)c1Cl` [Compound (9)], for which the “Degree of Disease Occurrence” value was found to be 57.3 in the experiment on powdery mildew (setting [21]), 63.5 in the experiment with powdery mildew (setting [1]), 38.3 with powdery mildew (setting [22]) and 33.0 in the experiment on powdery mildew (setting [4]). Further, the “Disease Leaf Rate (%)” value in the experiment on powdery mildew (setting [21]) is reported as 100.0%; with powdery mildew (setting [1]), 100.0%; in the experiment with powdery mildew (setting [22]), 96.9%; in the experiment on powdery mildew (setting [4]) it was 83.9%.
